Measurements as given in US20190021380A1 (priority 2014, published 2019).
Several values for one entry are separate records, joined by “and”; a condition that tells them apart may be missing. Identical values can stand only once.

Key:
[1] = target: T1, T1R1/T1R3 receptor (Felis catus, UniProt E3UMS2); assay: Example 8: agonist screening of transmembrane compounds on T1R1/T1R3 in HEK293 cells; type: cell-based, cat; conditions: for T1R1/T1R3 agonist: transmembrane compound tested at 0.01, 0.1 and 1 mM, HEK293 cells expressing T1R1/T1R3, calcium dye and/or luminescent reporter; for agonist profile assessment: transmembrane compound alone, in words
Procedure: (§1) HEK293 cells that stably express T1R3 and inducibly express T1R1 were exposed to a transmembrane compound. Activation of the T1R1/T1R3 receptor was detected by a change in intracellular calcium levels using a calcium sensitive fluorescent dye and/or a luminescent reporter system. […] A FLIPR® Tetra or a FlexStation® 3 was used for data capture.
Each transmembrane compound was tested at concentrations of 0.01 mM, 0.1 mM, and 1 mM. […] To generate the dose response curves, the transmembrane compound was tested at concentrations of between 0.0001 mM and 1.0 mM in the presence of GMP and Ala.

[2] = target: T1, T1R1/T1R3 receptor; assay: Example 8: PAM screening of transmembrane compounds with GMP and Ala on T1R1/T1R3 in HEK293 cells; type: cell-based, cat; conditions: for T1R1/T1R3 PAM: compound at 0.01, 0.1, 1 mM in combination with GMP+Ala mixtures (T1-T4), PAM if response to the combination is greater than the sum of the responses to compound alone and to GMP+Ala alone; for PAM profile assessment: in the presence of GMP and Alanine, in words
From the text: as §1, with “to” for “to a”, “compound alone or in combination with Ala and GMP to activate the umami receptor.” for “compound.”
Dose response curves were generated for each transmembrane compound at concentrations of 0 (buffer only), 0.01, 0.1 and 1 mM, wherein each of the three concentrations of transmembrane compound was tested in combination with 0.03 mM GMP+100 mM Ala (T1); 0.6 mM GMP+10 mM Ala (T2); 0.1 mM GMP+60 mM Ala (T3) and 0.3 mM GMP+60 mM Ala (T4). The T4 mixture was also tested in a 2-fold dilution series (the T4(X) Concentration). In these experiments, the first test concentration was 2× (2 times) the T4 concentration. The subsequent test concentrations were 2-fold dilutions from that (1×, 0.5× etc.). This dilution series was tested with or without the addition of the test compound at a constant 0.3 mM concentration.
Activation of the umami receptor was also determined in the presence of 1 mM GMP+100 mM Ala to generate a “maximum” umami receptor activation level.

[3] = target: T1, T1R1/T1R3 receptor; assay: cell-based; type: cell-based
From the text: (§2) HEK293 cells that stably express T1R3 and inducibly express T1R1 were exposed to transmembrane compounds alone or in combination with one or more amino acids and/or one or more nucleotides to activate the umami receptor. Activation of the T1R1/T1R3 receptor was detected by a change in intracellular calcium levels using a calcium sensitive fluorescent dye. Cells that express T1R3 but not T1R1 were used as a control. A FLIPR® Tetra or a FlexStation® 3 was used for data capture.
(§3) In each experiment, serial dilutions of up to 10 mM of the transmembrane compound were added to the T1R1/T1R3-expressing cells.

[4] = target: T1, T1R1/T1R3 receptor; type: cell-based; conditions: threshold in the presence of 0.2 mM IMP; CNBD = Could not be determined
From the text: as §2, §3

[5] = target: T1, T1R1/T1R3 receptor; assay: Example 6: activation of T1R1/T1R3 by transmembrane compounds, conducted as in Example 5; type: cell-based; conditions: T1R1/T1R3 EC50, +0.2 mM IMP
From the text: as §2, §3

Structure (SMILES)	T1R1/T1R3 agonist [1]	T1R1/T1R3 PAM [2]	agonist profile assessment [1]	PAM profile assessment [2]	further results
COC(=O)C(NCc1ccccc1)c1ccccc1 (stereo not shown) [Formula 19, Methyl-2-benzylamino-2-phenylacetate]	Yes	Yes			
Cl.N[C@@H](Cc1ccccc1)C(=O)OCc1ccccc1 [Formula 20, L-Phenylalanine benzyl ester hydrochloride]	Yes	Yes			
N[C@@H](Cc1ccc(O)cc1)C(=O)OCc1ccccc1 [Formula 21, L-Tyrosine benzyl ester]	No	No			
O=C(O)[C@H](Cc1ccc(O)cc1)NCc1ccccc1 [Formula 22, N-Benzyl-L-Tyrosine]	No	No			
Cc1ccc(CNC(Cc2ccccc2)C(=O)O)cc1 (stereo not shown) [Formula 23, 2-((4-methylbenzyl)amino)-3-phenylpropanoic acid]	No	No			
O=C1CC(=O)N(Cc2ccccc2)C(=O)N1Cc1ccccc1 [Formula 24, 1,3-dibenzylpyrimidine-2,4,6(1H,3H,5H)-trione]	Yes	No			
Cl.N[C@@H](Cc1ccccc1)C(=O)OCc1ccccc1 [L-Phenylalanine benzyl ester hydrochloride]			agonist	PAM activity	
COC(=O)C(NCc1ccccc1)c1ccccc1 (stereo not shown) [Methyl-2-benzylamino-2-phenylacetate]			agonist	PAM activity	
CCCC(CCC)NC(=O)c1ccc2c(c1)OCO2 [N-(heptan-4-yl)benzo[d][1,3]dioxole-5-carboxamide]			agonist	PAM activity	Max resp ΔF/F +IMP (0.2 mM) ([3]; in the presence of 0.2 mM IMP): 1.4725 and 1.393 and 1.473; Max resp % of Ala +IMP (0.2 mM) ([3]; in the presence of 0.2 mM IMP, relative to Ala): 165.8% and 119.6%; Max resp ΔF/F +Alanine (20 mM) ([3]; in the presence of 20 mM alanine): 1.7725 and 1.2; Max resp % of IMP +Alanine (20 mM) ([3]; in the presence of 20 mM alanine, relative to IMP): 118.2% and 142.7%
COC(=O)[C@@H](Cc1ccccc1)NCc1ccccc1.Cl [N-Benzyl-D-Phenylalanine methyl ester hydrochloride]			agonist	PAM activity	
COC(=O)[C@H](Cc1ccccc1)NCc1ccccc1 [N-Benzyl-L-phenylalanine methyl ester]			agonist	PAM activity	Thres +IMP (0.2 mM) [4]: 0.003 mM; EC50 [5]: 20 ± 1 µM
